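Results reflect a 48-hour exposure of cells in 96-well plates to compound at five concentrations. GI50 = concentration required for 50% inhibition of growth.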 Calls of active or inactive are those of the source. Cut-off read from the data, not from the text of the source: active = GI50 up to about 1.1 µM and inactive = higher.
What was measured:
Experiment in all cases: NCI anticancer screen, dose series, 48 h
786-0 = test system: 786-0
A549 = test system: A549
CCRF-CEM = test system: CCRF-CEM
HCT-116 = test system: HCT-116
K562 = test system: K562
MOLT-4 = test system: MOLT-4
NCI-H226 = test system: NCI-H226
NCI/ADR-RES = test system: NCI/ADR-RES
OVCAR-3 = test system: OVCAR-3
OVCAR-4 = test system: OVCAR-4
OVCAR-8 = test system: OVCAR-8
RPMI-8226 = test system: RPMI-8226
RXF 393 = test system: RXF 393
SF-539 = test system: SF-539
SK-MEL-28 = test system: SK-MEL-28
SK-OV-3 = test system: SK-OV-3
SW-620 = test system: SW-620
UACC-257 = test system: UACC-257
UO-31 = test system: UO-31

SMILES | GI50 (786-0) | GI50 (A549) | GI50 (CCRF-CEM) | GI50 (HCT-116) | GI50 (K562) | GI50 (MOLT-4) | GI50 (NCI-H226) | GI50 (NCI/ADR-RES) | GI50 (OVCAR-3) | GI50 (OVCAR-4) | GI50 (OVCAR-8) | GI50 (RPMI-8226) | GI50 (RXF 393) | GI50 (SF-539) | GI50 (SK-MEL-28) | GI50 (SK-OV-3) | GI50 (SW-620) | GI50 (UACC-257) | GI50 (UO-31)
CC(C)=CCC/C(C)=C/CC/C(C)=C/CSc1ccccc1C(=O)O [SALIRASIB] | 18.2 µM (inactive) | 20.7 µM (inactive) | 28.3 µM (inactive) | 16.7 µM (inactive) | 36.6 µM (inactive) | 23.5 µM (inactive) | 23.5 µM (inactive) | 22.5 µM (inactive) | 16.5 µM (inactive) | 36.9 µM (inactive) | 17.4 µM (inactive) | 32 µM (inactive) | 27.2 µM (inactive) | 17.5 µM (inactive) | 21.1 µM (inactive) | 25.4 µM (inactive) | 35.9 µM (inactive) | 34.8 µM (inactive) | > 10 µM (inactive)
COC(=O)/C=C1/OC(c2ccc(Br)cc2)=C(Br)C1=O | 2.4 µM (inactive) | 16 µM (inactive) | 1.82 µM (inactive) | 3 µM (inactive) | 2.47 µM (inactive) | 2.42 µM (inactive) | 14.4 µM (inactive) | 9.4 µM (inactive) | 4.35 µM (inactive) | 5.16 µM (inactive) | 3.29 µM (inactive) | 2.26 µM (inactive) | 4.94 µM (inactive) | 5.94 µM (inactive) | 12 µM (inactive) | 19.9 µM (inactive) | 2.6 µM (inactive) | 13.3 µM (inactive) | 11.7 µM (inactive)
CC(OC(C)(C)C)[C@H](NC(=O)OC(C)(C)C)C(=O)O (stereo partly drawn) | > 100 µM (inactive) | > 100 µM (inactive) | > 100 µM (inactive) | > 100 µM (inactive) | > 100 µM (inactive) | > 100 µM (inactive) | > 100 µM (inactive) | > 100 µM (inactive) | > 100 µM (inactive) | > 100 µM (inactive) | > 100 µM (inactive) | > 100 µM (inactive) | > 10 µM (inactive) | > 100 µM (inactive) | > 10 µM (inactive) | > 100 µM (inactive) | > 100 µM (inactive) | > 100 µM (inactive) | > 100 µM (inactive)
COc1cccc2c1/c(=C/c1ccc(N(C)C)cc1)c1cc(-c3ccccc3)[n+](C)n12 | 0.074 µM (active) | 0.112 µM (active) | 0.0571 µM (active) | 0.107 µM (active) | 0.0493 µM (active) | 0.0897 µM (active) | 0.177 µM (active) | 3.19 µM (inactive) | 0.0857 µM (active) | 0.344 µM (active) | 0.0446 µM (active) | 0.0202 µM (active) | 0.528 µM (active) | 0.169 µM (active) | 0.239 µM (active) | 0.223 µM (active) | 0.0421 µM (active) | 0.113 µM (active) | 0.295 µM (active)
N=C(N)SCc1ccc2c(c1)S(=O)(=O)c1ccccc1O2 | 33.6 µM (inactive) | 19 µM (inactive) | 10.5 µM (inactive) | 22 µM (inactive) | 26.7 µM (inactive) | 19.1 µM (inactive) | 16.7 µM (inactive) | 39.8 µM (inactive) | 17 µM (inactive) | 22.3 µM (inactive) | 30.1 µM (inactive) | 37.7 µM (inactive) | 21.2 µM (inactive) | 26.1 µM (inactive) | 16.4 µM (inactive) | 20.8 µM (inactive) | 17.8 µM (inactive) | 16.3 µM (inactive) | 15.2 µM (inactive)
C[C@H]1[C@H](C)CC[C@]2(C(=O)OC3OC(CO)C(O)C(O)C3O)CC[C@]3(C)C(=CC[C@@H]4[C@@]5(C)C[C@@H](O)[C@@H]6OC(=O)c7cc(O)c(O)c(O)c7-c7c(cc(O)c(O)c7O)C(=O)OC[C@@]6(CO)[C@@H]5CC[C@]43C)[C@H]12 (stereo partly drawn) | 23.2 µM (inactive) | > 100 µM (inactive) | 43.5 µM (inactive) | 46.7 µM (inactive) | 32.7 µM (inactive) | 39.5 µM (inactive) | > 100 µM (inactive) | > 100 µM (inactive) | > 46.1 µM (inactive) | 23.9 µM (inactive) | 57.1 µM (inactive) | 98.2 µM (inactive) | > 100 µM (inactive) | > 100 µM (inactive) | > 100 µM (inactive) | 98.6 µM (inactive) | 28.6 µM (inactive) | > 100 µM (inactive) | 43.1 µM (inactive)
OC1(c2cccs2)c2cccc(Cl)c2C(O)(c2cccs2)c2c(Cl)cccc21 (stereo not drawn) | 34.4 µM (inactive) | > 100 µM (inactive) | 93.3 µM (inactive) | > 100 µM (inactive) | > 100 µM (inactive) | > 100 µM (inactive) | > 100 µM (inactive) | 63.5 µM (inactive) | > 100 µM (inactive) | > 100 µM (inactive) | 58.9 µM (inactive) | > 100 µM (inactive) | > 100 µM (inactive) | 37 µM (inactive) | > 100 µM (inactive) | 81.5 µM (inactive) | > 100 µM (inactive) | > 100 µM (inactive) | > 100 µM (inactive)

Source: ChEMBL document CHEMBL1201862, “PubChem BioAssay data set” (2004)
